For data set [1], the system named is chondrocytes in the cartilage chamber. Nature of the data set: RT-PCR marker expression, chondrocyte response in cartilage (top) chamber of the bioreactor. The format is cell-based. Particulars: weeks 3 and 4 (1 nM estradiol + 10 nM progesterone; 0.1 nM estradiol + 50 nM progesterone). How it is done: FIGS. 17-20 are graphs that show differential expression of markers (as determined by RT-PCR) for a control medium that contained no estrogen or progesterone (first bar), and then different concentrations of hormones supplied to one or the other of the bioreactor chambers during week 1 (w1: 0.1 nM estradiol), week 2 (w2: 1 nM estradiol), week 3 (w3: 1 nM estradiol and 10 nM progesterone), and week 4 (w4: 0.1 nM estradiol and 50 nM progesterone). […] FIGS. 17-18 show differential expression of markers (as determined by RT-PCR) for a control medium that contained no estrogen or progesterone (first bar), and then different concentrations of hormones supplied to the chambers during week 1 (w1: 0.1 nM estradiol), week 2 (w2: 1 nM estradiol), week 3 (w3: 1 nM estradiol and 10 nM progesterone), and week 4 (w4: 0.1 nM estradiol and 50 nM progesterone).

For data set [2] the following is noted: not told.
Text: The porosity and permeability of the latter have been estimated via Boyle's pycnometer and scanning electron microscopy (SEM) analysis.

As to `CC(=O)[C@H]1CC[C@H]2[C@@H]3CCC4=CC(=O)CC[C@]4(C)[C@H]3CC[C@]12C` [progesterone], the “expression of cartilage anabolic markers, progesterone progressively added” value in data set [1] is listed as “downregulation is still present”. With poly-L-lactate [PLLA scaffold], the Permeability in data set [2] was determined as 3.234e−09 m^2.

Source of the values: patent US11154858B2, “Microfluidic tissue development systems” (University of Pittsburgh—Of the Commonwealth System of …, priority 2015, dated 2021).
